Measured values: patent US7371746B2, “1,2,4-Thiadiazole compounds and pests controlling composition containing the same” (Sumitomo Chemical Company Limited, priority 2003, dated 2008)

What follows are compounds tested on Aphis gossypii (cotton aphid) (assay: Test Example 1: spray test on cucumber plants infested with cotton aphid). Details: 144 h, 500 ppm active ingredient, spray liquid 20 ml/cup on cucumber plant, sixth day after the application.
Format: in vivo
Method: The formulation of each of the present compounds (3), (4), (5), (6), (7), (8), (9), (10), (11), (14), (15a), (15b), (16a), (17a), (17b), (18a), (18b), (19), (20), (21) and (22) according to Formulation Example 5 was diluted with water so that the active ingredient concentration came to 500 ppm to prepare a spray liquid. The seeds of cucumber were planted in a polyethylene cup and it was grown until the first true leaf was developed. On the plant about twenty Aphis gossypii (cotton aphid) are allowed to be parasitic. On the next day, the above spray liquid was applied at a ratio of 20 ml/cup to the cucumber plant. On the sixth day after the application, the number of Aphis gossypii was examined, and the control value was determined by the following formula: Control value (%)={1−(Cb×Tai)/(Cai×Tb)}×100 wherein the variables in the formula have the following meanings: Cb: the number of insects before the treatment in the non-treated area; Cai: the number of insects at the time of observation in the non-treated area; Tb: the number of insects before the treatment in the treated area; and Tai: the number of insects at the time of observation in the treated area.

| SMILES | pest or weed control at 500 ppm [%] |
| --- | --- |
| CC#CCOc1nsc(N2CCCCC2)n1 [present compound (3), 3-(2-butynyloxy)-5-piperidino-1,2,4-thiadiazole] | ≥ 90 |
| CCC#CCOc1nsc(N2CCCCC2)n1 [present compound (4), 3-(2-pentynyloxy)-5-piperidino-1,2,4-thiadiazole] | ≥ 90 |
| CC#CCOc1nsc(N2CCCCC2C)n1 (stereo not drawn) [present compound (5), 3-(2-butynyloxy)-5-(2-methylpiperidino)-1,2,4-thiadiazole] | ≥ 90 |
| CCC#CCOc1nsc(N2CCCCC2C)n1 (stereo not drawn) [present compound (6), 3-(2-pentynyloxy)-5-(2-methylpiperidino)-1,2,4-thiadiazole] | ≥ 90 |
| CC#CCOc1nsc(N2CCCC(C)C2)n1 (stereo not drawn) [present compound (7), 3-(2-butynyloxy)-5-(3-methylpiperidino)-1,2,4-thiadiazole] | ≥ 90 |
| CCC#CCOc1nsc(N2CCCC(C)C2)n1 (stereo not drawn) [present compound (8), 3-(2-pentynyloxy)-5-(3-methylpiperidino)-1,2,4-thiadiazole] | ≥ 90 |
| CC#CCOc1nsc(N2CCOCC2)n1 [present compound (9), 3-(2-butynyloxy)-5-morpholino-1,2,4-thiadiazole] | ≥ 90 |
| CCC#CCOc1nsc(N2CCOCC2)n1 [present compound (10), 3-(2-pentynyloxy)-5-morpholino-1,2,4-thiadiazole] | ≥ 90 |
| CC#CCOc1nsc(N2CCC(C)CC2)n1 [present compound (11), 3-(2-butynyloxy)-5-(4-methylpiperidino)-1,2,4-thiadiazole] | ≥ 90 |
| CCC#CCOc1nsc(N2CCCCCC2)n1 [present compound (14), 3-(2-pentynyloxy)-5-hexamethyleneimino-1,2,4-thiadiazole] | ≥ 90 |
| CC#CCOc1nsc(N2CC(C)CC(C)C2)n1 (stereo not drawn) [present compound (15a), 3-(2-butynyloxy)-5-(3,5-dimethylpiperidino)-1,2,4-thiadiazole] | ≥ 90 |
| CCC#CCOc1nsc(N2CC(C)CC(C)C2)n1 (stereo not drawn) [present compound (16a), 3-(2-pentynyloxy)-5-(3,5-dimethylpiperidino)-1,2,4-thiadiazole] | ≥ 90 |
| CC#CCOc1nsc(N2CC(C)OC(C)C2)n1 (stereo not drawn) [present compound (17a), 3-(2-butynyloxy)-5-(2,6-dimethylmorpholino)-1,2,4-thiadiazole] | ≥ 90 |
| CCC#CCOc1nsc(N2CC(C)OC(C)C2)n1 (stereo not drawn) [present compound (18a), 3-(2-pentynyloxy)-5-(2,6-dimethylmorpholino)-1,2,4-thiadiazole] | ≥ 90 |
| CC#CCOc1nsc(N2CC(CC)CC(CC)C2)n1 (stereo not drawn) [present compound (19), 3-(2-butynyloxy)-5-(3,5-diethylpiperidino)-1,2,4-thiadiazole] | ≥ 90 |
| C#CCOc1nsc(N2CC(C)CC(C)C2)n1 (stereo not drawn) [present compound (20), 3-(2-propynyloxy)-5-(3,5-dimethylpiperidino)-1,2,4-thiadiazole] | ≥ 90 |
| CC#CC(C)Oc1nsc(N2CC(C)CC(C)C2)n1 (stereo not drawn) [present compound (21), 3-(1-methyl-2-butynyloxy)-5-(3,5-dimethylpiperidino)-1,2,4-thiadiazole] | ≥ 90 |
| CC#CCOc1nsc(N2CCCC(C(F)(F)F)C2)n1 (stereo not drawn) [present compound (22), 3-(2-butynyloxy)-5-(3-trifluoromethylpiperidino)-1,2,4-thiadiazole] | ≥ 90 |
